In ChEMBL document CHEMBL3997763 (Medchemcomm, 2016):

Columns and labels:
Rattus norvegicus [1] = test: Increase in phospholipid level in serum of triton WR-1339 induced Charles Foster rat hyperlipidemia model at 50 mg/kg, po administered simultaneously with triton WR-1339 after 18 hrs by enzymatic method relative to control; type: functional
Liver = test: Intrinsic clearance in Sprague-Dawley rat liver microsomes at 10 uM in absence of NADPH after 5 to 90 mins by LC-MS/MS analysis; type: ADME, microsome
[2] = Apparent oral clearance in Sprague-Dawley rat at 100 mg/kg administered as single dose by LC-MS/MS analysis; type: ADME, organism-based; settings: in vivo
Rattus norvegicus [3] = test: Antihyperlipidemic activity in triton WR-1339 induced Charles Foster rat hyperlipidemia model assessed as inhibition of total cholesterol level in serum at 150 mg/kg, po administered simultaneously with triton WR-1339 after 18 hrs by enzymatic method relative to control; type: functional
Rattus norvegicus [4] = test: Hypolipidemic activity in HFD-induced Charles Foster rat chronic hyperlipidemia model assessed as reduction in liver triglyceride level at 100 mg/kg administered via oral gavage for 30 days simultaneously with high fat diet by enzymatic method relative to HFD treated vehicle; type: functional; settings: 720 h
Rattus norvegicus [5] = test: Antihyperlipidemic activity in triton WR-1339 induced Charles Foster rat hyperlipidemia model assessed as inhibition of total cholesterol level in serum at 50 mg/kg, po administered simultaneously with triton WR-1339 after 18 hrs by enzymatic method relative to control; type: functional

With `COc1ccc(-c2cc3cc(C(c4c[nH]c5ccccc45)c4c[nH]c5ccccc45)cc(C(C)(C)C)c3oc2=O)cc1OC` the Activity (Rattus norvegicus [1]) was 22%, the CLH (Liver) was 5.8 µL/min/mg and the CL/F [2] was 241 L/h/kg. The inhibition in vivo at 150 mg/kg (Rattus norvegicus [3]) was 33%, the inhibition in vivo at 100 mg/kg (Rattus norvegicus [4]) was 29% and the inhibition in vivo at 50 mg/kg (Rattus norvegicus [5]) was 20%.
